Legend:
KRAS G12D = KRAS G12D (Homo sapiens, UniProt P01116, G12D); test: GDP-GTP exchange assay (KRAS G12D); format: biochemical; conditions: bodipy-GDP/GppNHp exchange with SOS1; 4 h pre-incubation, 2 h reaction;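 note: one dagger IC50 up to 100 nM and two daggers above 100 nM up to 1 μM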
Summary of the method: (§1)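 IC50 came from a four-parameter fit of fluorescence loss (485/520 nm) as SOS1 (150 nM) swapped bodipy-GDP for GppNHp (500 μM) on 2.5 nM KRAS, final concentrations. Compounds were pre-incubated 4 h at r.t. (pH 7.5 Hepes, 10 mM MgCl2); exchange ran 2 h (G12D) or 3 h (G12V).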

KRAS G12V = KRAS G12V (Homo sapiens, UniProt P01116, G12V); test: GDP-GTP exchange assay (KRAS G12V); format: biochemical; conditions: bodipy-GDP/GppNHp exchange with SOS1; 3 h incubation after GppNHp-SOS1;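 note: one dagger IC50 up to 100 nM and two daggers above 100 nM up to 1 μM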
Sequence of KRAS G12V (P01116 1-188 isoform P01116-2 G12V): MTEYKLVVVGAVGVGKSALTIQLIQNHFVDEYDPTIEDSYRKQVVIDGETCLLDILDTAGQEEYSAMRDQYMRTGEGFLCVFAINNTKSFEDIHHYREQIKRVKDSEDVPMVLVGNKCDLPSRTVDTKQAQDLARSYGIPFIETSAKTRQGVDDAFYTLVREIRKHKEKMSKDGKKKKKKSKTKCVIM
Summary of the method: as §1

[1] = Caco2 assay (permeability, Papp A-B); format: in vitro ADME; conditions: human, Caco-2, absorptive direction (A-B), 50 μM test compound, 4% BSA in receiver
Summary of the method: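 Absorptive (A-B) Papp: 50 μM test compound in HBSS added to apical side of 22-25-day Caco-2 monolayers (TEER 300 Ω·cm^2), receiver buffer containing 4% BSA. After 120 min at 37 °C, 5% CO2, both sides analysed by LCMS; Papp calculated from flux rate normalized to area and donor amount.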

Sequence of KRAS G12D (P01116 1-188 isoform P01116-2 G12D): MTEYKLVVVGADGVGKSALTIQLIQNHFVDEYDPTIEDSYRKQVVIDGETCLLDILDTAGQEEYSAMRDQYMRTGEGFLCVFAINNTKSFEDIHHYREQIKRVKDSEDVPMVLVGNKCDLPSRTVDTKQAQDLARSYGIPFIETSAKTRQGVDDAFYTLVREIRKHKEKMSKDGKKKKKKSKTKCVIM

| SMILES | G12D_exchange (KRAS_G12D exchange assay IC50) (KRAS G12D) | G12V_exchange (KRAS_G12V exchange assay IC50) (KRAS G12V) | Papp A→B at 120 min, 50 μM [1] [×10⁻⁶ cm/s] |
| --- | --- | --- | --- |
| Cc1nc2c(F)c(-c3cccc(Cl)c3Cl)c(CCC#N)cc2c2c1cc([C@H]1[C@H]3C[C@H](CN(c4cc(C(F)F)ccn4)C3)N1C(=O)C1CC1)n2[C@H]1[C@H]2CN[C@@H]1C2 (atropisomer, axis not shown; (Ra)) [Example 89, 3-((Ra)-1-((1R,4R,5S)-2-azabicyclo[2.1.1]hexan-5-yl)-2-((1S,5R,7R)-6-(cyclopropanecarbonyl)-3-(4-(difluoromethyl)pyridin-2-yl)-3,6-diazabicyclo[3.2.1]octan-7-yl)-7-(2,3-dichlorophenyl)-6-fluoro-4-methyl-1H-pyrrolo[3,2-c]quinolin-8-yl)propanenitrile] | † | † | ≤ 0.5 |
| Cc1csc(N2C[C@@H]3C[C@H](C2)N(C(=O)C2CC2)[C@H]3c2cc3c(C)nc4c(F)c(-c5cccc(Cl)c5Cl)c(CCC#N)cc4c3n2[C@H]2[C@H]3CN[C@@H]2C3)n1 (atropisomer, axis not shown; (Ra)) [Example 90, 3-((Ra)-1-((1R,4R,5S)-2-azabicyclo[2.1.1]hexan-5-yl)-2-((1S,5R,7R)-6-(cyclopropanecarbonyl)-3-(4-methylthiazol-2-yl)-3,6-diazabicyclo[3.2.1]octan-7-yl)-7-(2,3-dichlorophenyl)-6-fluoro-4-methyl-1H-pyrrolo[3,2-c]quinolin-8-yl)propanenitrile] | † | † | ≤ 0.5 |
| Cc1cnc(N2C[C@@H]3C[C@H](C2)N(C(=O)C2CC2)[C@H]3c2cc3c(C)nc4c(F)c(-c5cccc(Cl)c5Cl)c(CCC#N)cc4c3n2[C@H]2[C@H]3CN[C@@H]2C3)s1 (atropisomer, axis not shown; (Ra)) [Example 91, 3-((Ra)-1-((1R,4R,5S)-2-azabicyclo[2.1.1]hexan-5-yl)-2-((1S,5R,7R)-6-(cyclopropanecarbonyl)-3-(5-methylthiazol-2-yl)-3,6-diazabicyclo[3.2.1]octan-7-yl)-7-(2,3-dichlorophenyl)-6-fluoro-4-methyl-1H-pyrrolo[3,2-c]quinolin-8-yl)propanenitrile] | † | † | ≤ 0.5 |
| Cc1nc2c(F)c(-c3cccc(Cl)c3Cl)c(CCC#N)cc2c2c1cc([C@H]1[C@H]3C[C@H](CN(c4ncnn4C)C3)N1C(=O)C1CC1)n2[C@H]1[C@H]2CN[C@@H]1C2 (atropisomer, axis not shown; (Ra)) [Example 92, 3-((Ra)-1-((1R,4R,5S)-2-azabicyclo[2.1.1]hexan-5-yl)-2-((1S,5R,7R)-6-(cyclopropanecarbonyl)-3-(1-methyl-1H-1,2,4-triazol-5-yl)-3,6-diazabicyclo[3.2.1]octan-7-yl)-7-(2,3-dichlorophenyl)-6-fluoro-4-methyl-1H-pyrrolo[3,2-c]quinolin-8-yl)propanenitrile] | † | † | ≤ 0.5 |
| Cc1nc2c(F)c(-c3cccc(Cl)c3Cl)c(CCC#N)cc2c2c1cc([C@H]1[C@H]3C[C@H](CN(c4cscn4)C3)N1C(=O)C1CC1)n2[C@H]1[C@H]2CN[C@@H]1C2 (atropisomer, axis not shown; (Ra)) [Example 93, 3-((Ra)-1-((1R,4R,5S)-2-azabicyclo[2.1.1]hexan-5-yl)-2-((1S,5R,7R)-6-(cyclopropanecarbonyl)-3-(thiazol-4-yl)-3,6-diazabicyclo[3.2.1]octan-7-yl)-7-(2,3-dichlorophenyl)-6-fluoro-4-methyl-1H-pyrrolo[3,2-c]quinolin-8-yl)propanenitrile] | † | † | ≤ 0.5 |
| Cc1nc2c(F)c(-c3cccc(Cl)c3Cl)c(CCC#N)cc2c2c1cc([C@H]1[C@H]3C[C@H](CN(c4nc(C(F)(F)F)cs4)C3)N1C(=O)C1CC1)n2[C@H]1[C@H]2CN[C@@H]1C2 (atropisomer, axis not shown; (Ra)) [Example 94, 3-((Ra)-1-((1R,4R,5S)-2-azabicyclo[2.1.1]hexan-5-yl)-2-((1S,5R,7R)-6-(cyclopropanecarbonyl)-3-(4-(trifluoromethyl)thiazol-2-yl)-3,6-diazabicyclo[3.2.1]octan-7-yl)-7-(2,3-dichlorophenyl)-6-fluoro-4-methyl-1H-pyrrolo[3,2-c]quinolin-8-yl)propanenitrile] | † | † | ≤ 0.5 |
| Cc1nc(N2C[C@@H]3C[C@H](C2)N(C(=O)C2CC2)[C@H]3c2cc3c(C)nc4c(F)c(-c5cccc(Cl)c5Cl)c(CCC#N)cc4c3n2[C@H]2[C@H]3CN[C@@H]2C3)sc1C (atropisomer, axis not shown; (Ra)) [Example 95, 3-((Ra)-1-((1R,4R,5S)-2-azabicyclo[2.1.1]hexan-5-yl)-2-((1S,5R,7R)-6-(cyclopropanecarbonyl)-3-(4,5-dimethylthiazol-2-yl)-3,6-diazabicyclo[3.2.1]octan-7-yl)-7-(2,3-dichlorophenyl)-6-fluoro-4-methyl-1H-pyrrolo[3,2-c]quinolin-8-yl)propanenitrile] | † | † | ≤ 0.5 |
| Cc1nc2c(F)c(-c3cccc(Cl)c3Cl)c(CCC#N)cc2c2c1cc([C@H]1[C@H]3C[C@H](CN(c4nc(C#N)cs4)C3)N1C(=O)C1CC1)n2[C@H]1[C@H]2CN[C@@H]1C2 (atropisomer, axis not shown; (Ra)) [Example 96, 2-((1S,5R,7R)-7-((Ra)-1-((1R,4R,5S)-2-azabicyclo[2.1.1]hexan-5-yl)-8-(2-cyanoethyl)-7-(2,3-dichlorophenyl)-6-fluoro-4-methyl-1H-pyrrolo[3,2-c]quinolin-2-yl)-6-(cyclopropanecarbonyl)-3,6-diazabicyclo[3.2.1]octan-3-yl)thiazole-4-carbonitrile] | † | † | ≤ 0.5 |
| Cc1sc(N2C[C@@H]3C[C@H](C2)N(C(=O)C2CC2)[C@H]3c2cc3c(C)nc4c(F)c(-c5cccc(Cl)c5Cl)c(CCC#N)cc4c3n2[C@H]2[C@H]3CN[C@@H]2C3)nc1C#N (atropisomer, axis not shown; (Ra)) [Example 97, 2-((1S,5R,7R)-7-((Ra)-1-((1R,4R,5S)-2-azabicyclo[2.1.1]hexan-5-yl)-8-(2-cyanoethyl)-7-(2,3-dichlorophenyl)-6-fluoro-4-methyl-1H-pyrrolo[3,2-c]quinolin-2-yl)-6-(cyclopropanecarbonyl)-3,6-diazabicyclo[3.2.1]octan-3-yl)-5-methylthiazole-4-carbonitrile] | † | † | ≤ 0.5 |
| Cc1nc(N2C[C@@H]3C[C@H](C2)N(C(=O)C2CC2)[C@H]3c2cc3c(C)nc4c(F)c(-c5cccc(Cl)c5Cl)c(CCC#N)cc4c3n2[C@H]2[C@H]3CN[C@@H]2C3)sc1C#N (atropisomer, axis not shown; (Ra)) [Example 98, 2-((1S,5R,7R)-7-((Ra)-1-((1R,4R,5S)-2-azabicyclo[2.1.1]hexan-5-yl)-8-(2-cyanoethyl)-7-(2,3-dichlorophenyl)-6-fluoro-4-methyl-1H-pyrrolo[3,2-c]quinolin-2-yl)-6-(cyclopropanecarbonyl)-3,6-diazabicyclo[3.2.1]octan-3-yl)-4-methylthiazole-5-carbonitrile] | † | † | ≤ 0.5 |
| CCc1cnc(N2C[C@@H]3C[C@H](C2)N(C(=O)C2CC2)[C@H]3c2cc3c(C)nc4c(F)c(-c5cccc(Cl)c5Cl)c(CCC#N)cc4c3n2[C@H]2[C@H]3CN[C@@H]2C3)s1 (atropisomer, axis not shown; (Ra)) [Example 99, 3-((Ra)-1-((1R,4R,5S)-2-azabicyclo[2.1.1]hexan-5-yl)-2-((1S,5R,7R)-6-(cyclopropanecarbonyl)-3-(5-ethylthiazol-2-yl)-3,6-diazabicyclo[3.2.1]octan-7-yl)-7-(2,3-dichlorophenyl)-6-fluoro-4-methyl-1H-pyrrolo[3,2-c]quinolin-8-yl)propanenitrile] | † | † | ≤ 0.5 |
| Cc1nc2c(F)c(-c3cccc(Cl)c3Cl)c(CCC#N)cc2c2c1cc([C@H]1[C@H]3C[C@H](CN(c4ccon4)C3)N1C(=O)C1CC1)n2[C@H]1[C@H]2CN[C@@H]1C2 (atropisomer, axis not shown; (Ra)) [Example 100, 3-((Ra)-1-((1R,4R,5S)-2-azabicyclo[2.1.1]hexan-5-yl)-2-((1S,5R,7R)-6-(cyclopropanecarbonyl)-3-(isoxazol-3-yl)-3,6-diazabicyclo[3.2.1]octan-7-yl)-7-(2,3-dichlorophenyl)-6-fluoro-4-methyl-1H-pyrrolo[3,2-c]quinolin-8-yl)propanenitrile] | † | † | ≤ 0.5 |
